Test system: MELANODERM™ MEL-300B tissue constructs
Experiment: Overall Melanin Level Assay (MELANODERM skin analog, Solvable Melanin Assay)
Type: cell-based, human
Details: for Absorbance (relative melanin content): MEL-300B tissue (donors with black complexion), 25 μl applied every other day for 10 days, read at 490 nm, 2% kojic acid solution, 0.4% hydroquinone solution, formulation of Table 1, untreated control 0.927
Description: This bioassay was used to analyze the effect of compounds on melanogenesis. […] The endpoint of this assay was spectrophotometric measurement of melanin production and cellular viability of tissue constructs derived from donors. The skin lightening efficacy of the formulation in Table 1 was evaluated using a skin analog sold by MatTek Corp. under the tradename MELANODERM™. Tissue constructs derived from donors with a black complexion (MELANODERM™ MEL-300B) were used. Tissue constructs derived from people with a black complexion have melanocytes with increased pigmentation versus those of people with a white or brown complexion melanocytes. MEL-300B tissue inserts were placed into the wells of 12-well plates filled with maintenance medium and pre-equilibrated in a humidified 37° C., 5% CO2 incubator overnight prior to applying treatment. After removal of the pre-equilibration medium, 25 μl of the formulation of Table 1 was applied directly to the MEL-300B stratum corneum by pipetting with a positive displacement pipette into the cell culture insert which contained the MEL-300B tissue inserts. Treatments were done in triplicates. 25 μl of 2% Kojic Acid (KA) solution and 25 μl of 0.4% Hydroquinone (HQ) solution were used as positive controls and 25 μl of sterile ultrapure water served as negative control. The MEL-300B tissue inserts were treated every other day for 10 consecutive days. Maintenance medium was replaced every other day with fresh medium. After treatment, the MEL-300B tissue inserts were submerged in phosphate buffered saline (PBS) for 10 minutes to remove any residual phenol red and test article from the tissue. After the MEL-300B tissue inserts were rinsed off, viability was measured on one of the tissues using the MTT viability assay (MTT Kit part #: MTT-100). The relative melanin content was measured using the Solvable Melanin Assay. Briefly, the tissues were removed from the inserts using fine-point forceps. Each tissue was blotted dry and placed in a 1.7 ml microfuge tube. […] Absorbance of the plate was read at 490 nm.

SMILES	effect on melanin compared to untreated control / positive control (in words) (MEL-300B tissue (dark skin model), topical application)	Absorbance (relative melanin content)
Oc1ccc(O)cc1 [Hydroquinone]	increase melanin compared to the untreated control	1.222
O=c1cc(CO)occ1O [Kojick Acid, Kojic Acid]	–	0.629
